Marks after values point to notes of the source that are not given here.
Columns and labels:
Format in all cases: in vivo, rabbit
[1] = tested on: rhinosinusitis induced by lipopolysaccharide (LPS); test: Goblet cell morphometric study (alcian blue staining) in rabbits with LPS-induced rhinosinusitis; details: for Number of alcian positive cells on 1 mm of epithelium / Number of goblet cells on 1 mm of epithelium / Ratio of alcian positive cells to total number of goblet cells, in %: rabbits, 2 mL intranasally in each nasal cavity once daily for seven days, M ± s.e.m., n = 6
Protocol: (§1) 42 male rabbits were used in this study. Animals were separated into seven groups, each containing six rabbits. The 1st group served as an untreated control, the second group was treated with a 0.9% NaCl solution, and five experimental groups were used to test the different formulations: onion peel extract, quercetin+2-(3,4-dihydroxybenzoyl)-2,4,6-trihydroxy-3(2H)-benzofuranone quercetin, quercetin-4′-glycoside and protocatechuic acid.
(§2) Rhinosinusitis was induced by introduction of 100 μL of 1% lipopoysaccharide (LPS) in each nasal cavity of the rabbits for three days (Dong-Hyun Kim et all, 2011).
(§3) The following concentrations of composition were tested:
(§4) onion peel water extract—1 mg/mL;
(§5) the mixture of quercetin—0.009 mg/mL and 2-(3,4-dihydroxybenzoyl)-2,4,6-trihydroxy-3(2H)-benzofuranone—0.001 mg/mL;
(§6) quercetin-4′-glycoside—0.25 mg/mL;
(§7) protocatechuic acid—0.25 mg/mL.
(§8) The compounds were diluted in solutions of 0.9-1% sodium chloride or in the solution containing 0.75% NaCl+0.25% NaHCO3 heated to 37° C. before administration. Except for the mixture of quercetin+2-(3,4-dihydroxybenzoyl)-2,4,6-trihydroxy-3(2H)-benzofuranone, which was suspension, all formulations were slightly opalescent-colored solutions.
(§9) 2 mL of the solutions was administered intranasally in each nasal cavity once daily for seven days. In order to get the maximal contact of nasal cavity with the tested substances, rabbits were kept in the “head down” position during administration.
(§10) The day after the last administration of the substances, animals were sacrificed by an overdose of a general anesthetics: Zoletil (Virbac, France) and Rometar (Bioveta, Czech Republic).
(§11) After macroscopic examinations, the nasal parts of rabbits' heads were fixed in 10% formaldehyde for 24 hours, then decalcified for 14 days in a hydrochloric acid/water (25:1) solution. Then, the noses of the animals were sectioned transversally at four levels: A—at the incisors; B— in a zone posterior to the incisors, C— at the second palatal ridge, and D—at the first premolar tooth. Tissues were then washed with water for 12 hours and embedded in paraffin using conventional methods. Histological sections of 3-5 μm were prepared from these tissues using microtome. In order to examine goblet cells and their glucosamine content, the tissue sections were stained with alcian blue at pH 2.5. Some tissue sections were re-stained with haematoxylin and eosin for further histological examinations.
(§12) Morphological investigation of histological preparations was performed using optical microscope CarlZeissAxioScopeA1 (Germany) at magnifications of 25×, 50×, 100×, 200× and 400×. Microphotographs of samples were taken using a digital camera AxioCamlCc 1 and AxioVisionRel.4.8 software (Germany). Morphometric measurements were taken using AxioVisionRel.4.8 software (Germany).
Goblet cells were counted within 1 mm of the respiratory zone of the epithelium.
All data were analyzed using descriptive statistics. The normality of data distribution was verified by Shapiro-Wilks test. In the case of normality, the mean and the standard error of the mean (s.e.m) were calculated and presented in tables together with n (number of values). […] The differences between groups were analyzed using parametric or non-parametric tests depending on the distribution type. The analysis of normally distributed data was done using the unifactorial dispersion analysis test (ANOVA), and further post-hoc analysis was done using Tukey's method. The data not corresponding to the normal distribution were analyzed using the non-parametric Kruskal-Wallis test, and the differences between groups were analyzed using the Mann-Whitney test. The difference was determined at a significance level of 0.05.

[2] = tested on: rhinosinusitis induced by lipopolysaccharide (LPS); test: Histological scoring of sino-nasal inflammation (score 0-3) in rabbits with LPS-induced rhinosinusitis; details: for Overall therapeutic effect / activity against rhinosinusitis: conclusion of the histological examination, compared to non-treated or placebo-treated animals; for Epithelial desquamation / Mucous gland damage: score 0-3 (0 absence of damage, 1 slightly, 2 moderately, 3 strongly damaged); for Epithelial desquamation / Mucous gland damage / Leukocyte infiltrate of mucous membrane / Mononuclear infiltrate of mucous membrane: median (1st; 3rd quartile), n = 6; for Epithelial desquamation / Mucous gland damage / Leukocyte infiltrate of mucous membrane / Mononuclear infiltrate of mucous membrane / Inflammation degree in different zones: Olfactory region / Inflammation degree in different zones: Respiratory region / Inflammation degree in different zones: Vestibule / Inflammation type: Post-inflammatory hyperplasia of goblet cells / Inflammation type: acute catarrhal rhinosinusitis / Inflammation type: acute purulent rhinosinusitis: intranasal once daily for seven days; for Leukocyte infiltrate of mucous membrane / Mononuclear infiltrate of mucous membrane: score 0-3 (0 none, 1: 1 to 5, 2: 6 to 10, 3: more than 10 cells in the zone); for Inflammation degree in different zones: Olfactory region / Inflammation degree in different zones: Respiratory region / Inflammation degree in different zones: Vestibule / Inflammation type: Post-inflammatory hyperplasia of goblet cells / Inflammation type: acute catarrhal rhinosinusitis / Inflammation type: acute purulent rhinosinusitis: scoring from 0 to 3, median (quartiles)
Protocol: as §1, §2, §3, §4, §5, §6, §7, §8, §9, §10, §11, §12
The appearance, severity of acute catarrhal rhinosinusitis, acute purulent rhinosinusitis and occurrence of post-inflammatory hyperplasia of goblet cells were evaluated by examining the degree of inflammatory lesions in various zones: vestibule, respiratory region, olfactory region and paranasal sinuses.
The degree of epithelial desquamation and mucociliary gland damage was scored along a scale from 0 to 3, where:
The degree of mononuclear and leukocyte cell infiltration was evaluated by scoring from 0 to 3, where:
0—no mononuclear cells present in the zone of examination;
1—1 to 5 mononuclear cells present in the zone of examination;
2—6 to 10 mononuclear cells present in the zone of examination;
3—more than 10 mononuclear cells present in the zone of examination.
All data were analyzed using descriptive statistics. The normality of data distribution was verified by Shapiro-Wilks test. In the case of normality, the mean and the standard error of the mean (s.e.m) were calculated and presented in tables together with n (number of values). […] The differences between groups were analyzed using parametric or non-parametric tests depending on the distribution type. […]

[3] = tested on: rhinosinusitis induced by lipopolysaccharide (LPS); test: Visual (macroscopic) examination of rabbits with LPS-induced rhinosinusitis; details: in words; after seven days of treatment
Protocol: as §1, §2, §8, §9
The nasal cavities of the animals were subjected to visual examinations immediately after euthanasia.

Compound	Number of alcian positive cells on 1 mm of epithelium [1]	Number of goblet cells on 1 mm of epithelium [1]	Ratio of alcian positive cells to total number of goblet cells, in % [1] [%]	Leucocyte cell infiltration of the mucous membranes versus control group ([2]; in words, Kruskal-Wallis and Mann-Whitney tests)	Overall therapeutic effect / activity against rhinosinusitis ([2]; in words)	Epithelial desquamation [2]	Mucous gland damage [2]	Leukocyte infiltrate of mucous membrane [2]	Mononuclear infiltrate of mucous membrane [2]	Inflammation degree in different zones: Olfactory region [2]	Inflammation degree in different zones: Respiratory region [2]	Inflammation degree in different zones: Vestibule [2]	Inflammation type: Post-inflammatory hyperplasia of goblet cells [2]	Inflammation type: acute catarrhal rhinosinusitis [2]	Inflammation type: acute purulent rhinosinusitis [2]	Macroscopic (visual) examination findings [3]	Acute purulent rhinosinusitis (observation) ([2]; in words)	Post-inflammatory hyperplasia of the goblet cells (observation) ([2]; in words)	Change in the number of goblet cells on 1 mm of epithelium compared to control ([1]; in words, ANOVA and Tukey's test)	Epithelial desquamation (observation) ([2]; in words)
O=C(O)c1ccc(O)c(O)c1 [Protocatechuic acid, protocatechuic acid]	16.3 ± 5.82	44.0 ± 6.76	35.0 ± 9.01	lower than in control group	moderate activity	0.0(0.0; 1.0) score	1.0(0.0; 1.0) score	0.5(0.0; 1.0)* score	1.0 (1.0; 1.0) score	1.0	1.0	0.0	0.5	1.0	0.0	No external changes were observed	–	–	–	–
O=c1c(O)c(-c2ccc(O)c(O)c2)oc2cc(O)cc(O)c12 [Quercetin, quercetin]	21.3 ± 6.49	43.0 ± 6.46	47.2 ± 12.33	–	–	0.5(0.0; 1.0) score	0.5(0.0; 2.0) score	2.0(2.0; 2.0) score	1.0 (1.0; 1.0) score	1.0	2.0	0.0	0.0	2.0	0.0	No external changes were observed	no sign	no sign	–	–
O=c1c(O)c(-c2ccc(O[C@@H]3O[C@H](CO)[C@@H](O)[C@H](O)[C@H]3O)c(O)c2)oc2cc(O)cc(O)c12 [Quercetin-4′-glycoside, quercetin-4′-glycoside]	21.8 ± 6.78	65.6 ± 6.03	35.8 ± 11.13	–	moderate activity	0.0(0.0; 0.0)* score	0.0(0.0; 1.0) score	1.0(1.0; 2.0) score	1.0 (1.0; 1.0) score	0.5	1.0	0.0	1.0	1.0	0.0	No external changes were observed	–	–	Increase	not observed
